From ChEMBL document CHEMBL4613212, “Insights of synthetic analogues of anti-leprosy agents” (Bioorg Med Chem, 2019) come the findings set out here.

In experiment [1] the test system is Mycobacterium leprae. Briefly: Anti-leprotic activity against Mycobacterium leprae infected in BALB/c weanling mouse assessed as bacteria killing at 100 mg/kg, ip administrated for 60 days and measured after 1 year by most probable number technique analysis relative to control. Format: functional.
Experiment [2] concerns Mycobacterium leprae. The experiment is described as follows: Anti-leprotic activity against Mycobacterium leprae infected in BALB/c weanling mouse assessed as bacteria killing at 100 mg/kg, ip administrated for 60 days and measured after 1 year by Spearman-Karber technique analysis relative to control. Format: functional.
Experiment [3] relates to Mycobacterium tuberculosis. Briefly: Antitubercular activity against Mycobacterium tuberculosis H37Rv ATCC 27294 assessed as growth inhibition at 6.25 ug/ml by microplate alamar blue assay relative to control. Format: functional. In general terms: Resazurin is reduced to fluorescent resorufin, in cell work by metabolically active cells.
Experiment [4] has as its system Mycobacterium tuberculosis. Briefly: Antitubercular activity against Mycobacterium tuberculosis H37Rv ATCC 27294 assessed as inhibition of [3H]-thymidine incorporation. The experiment is classed as functional, organism-based. In general terms: Incorporation of labelled thymidine or its analogues reports DNA synthesis.
Experiment [5] has as its system Mycobacterium tuberculosis. Briefly: Antitubercular activity against Mycobacterium tuberculosis H37Rv ATCC 27294 assessed as inhibition of [3H]-thymidine incorporation relative to control. Format: functional.
Experiment [6] relates to Enterococcus faecalis. The experiment is described as follows: Antimicrobial activity against Enterococcus faecalis ATCC 29212 by broth microdilution assay. The experiment is classed as functional.
For experiment [7], the system named is Staphylococcus aureus. Briefly: Antimicrobial activity against Staphylococcus aureus ATCC 25923 by broth microdilution assay. The experiment is classed as functional.
In experiment [8] the test system is Enterococcus faecalis. The experiment is described as follows: Antimicrobial activity against Enterococcus faecalis ATCC 51922 by broth microdilution assay. Format: functional. On the technique in general: In broth dilution the organism is exposed to a series of concentrations in liquid medium.
For experiment [9], the system named is Listeria monocytogenes. The experiment is described as follows: Antimicrobial activity against Listeria monocytogenes ATCC 1911 by broth microdilution assay. The experiment is classed as functional.
Experiment [10] has as its system Klebsiella pneumoniae. Briefly: Antimicrobial activity against Klebsiella pneumoniae 700603 by broth microdilution assay. The experiment is classed as functional.
The test system of experiment [11] is Pseudomonas aeruginosa. Briefly: Antimicrobial activity against Pseudomonas aeruginosa ATCC 27853 by broth microdilution assay. Format: functional.
Experiment [12] deals with Escherichia coli. Briefly: Antimicrobial activity against Escherichia coli ATCC 35218 by broth microdilution assay. The experiment is classed as functional.
In experiment [13] the test system is Escherichia coli. Briefly: Antimicrobial activity against Escherichia coli ATCC 25922 by broth microdilution assay. Format: functional.
Experiment [14] concerns Mycobacterium tuberculosis. Briefly: Antitubercular activity against Mycobacterium tuberculosis H37Rv ATCC 27294 incubated for 7 days by microplate alamar blue assay. The experiment is classed as functional. Particulars: H37Rv ATCC 27294, 168 h.
Experiment [15] concerns Nakaseomyces glabratus. Briefly: Antifungal activity against Candida glabrata. Format: functional.
Experiment [16] concerns Mycobacterium leprae. The experiment is described as follows: Anti-leprotic activity against Mycobacterium leprae infected in BALB/c mouse assessed as time delay in bacterial multiplication in footpad at 0.0045 g/100g of diet administered via feed starting 60 or 75 day post infection up to 90 days by Shepard's kinetic method. Format: functional.
Experiment [17] has as its system Mycobacterium leprae. The experiment is described as follows: Anti-leprotic activity against Mycobacterium leprae infected in BALB/c mouse assessed as time delay in bacterial multiplication in footpad at 0.011 g/100g of diet administered via feed starting 60 or 75 day post infection up to 90 days by Shepard's kinetic method. The experiment is classed as functional.

For experiment [18], the system named is Mycobacterium leprae. Briefly: Anti-leprotic activity against Mycobacterium leprae infected in BALB/c mouse assessed as time delay in bacterial multiplication in footpad at 0.0087 g/100g of diet administered via feed starting 60 or 75 day post infection up to 90 days by Shepard's kinetic method. Format: functional.
The test system of experiment [19] is Mycobacterium leprae. The experiment is described as follows: Anti-leprotic activity against Mycobacterium leprae infected in BALB/c mouse assessed as time delay in bacterial multiplication in footpad at 0.012 g/100g of diet administered via feed starting 60 or 75 day post infection up to 90 days by Shepard's kinetic method. Format: functional.

In brackets after ≈: the same amount, converted by molar mass.

For `NC[C@H]1O[C@H](O[C@H]2[C@H](O)[C@@H](O[C@H]3O[C@H](CO)[C@@H](O)[C@H](N)[C@H]3O)[C@H](N)C[C@@H]2N)[C@H](O)[C@@H](O)[C@@H]1O` [KANAMYCIN], the Activity in experiment [1] worked out at 99.8%; in experiment [2] it was 99.7%.

As for `OC[C@H]1O[C@@H](n2cnc3c(-c4ccco4)nc(Cl)nc32)[C@H](O)[C@@H]1O`, in experiment [3], the inhibition (commonly the drop in the measured response relative to a control, in per cent) at 6.25 µg/mL was 7%. Further, the IC50 (usually the concentration needed to halve the response being measured) in experiment [4] was 3.4 µg/mL (≈ 9.64 µM). In addition, the “inhibition (INH)” value in [5] came out at 100%.

As to `Fc1ccc(/C=N/NC(=S)Nc2ccc(C(F)(F)F)cc2)cc1`, the minimum inhibitory concentration (MIC) (usually the least concentration at which growth counts as inhibited) was 200 µg/mL (≈ 586 µM) in experiment [6]; 100 µg/mL (≈ 293 µM) in experiment [7]; 1600 µg/mL (≈ 4690 µM) in [8]; 1600 µg/mL (≈ 4690 µM) in [9]; 800 µg/mL (≈ 2340 µM) in experiment [10]; 1600 µg/mL (≈ 4690 µM) in [11]. The MIC in experiment [12] amounted to 1600 µg/mL (≈ 4690 µM); in experiment [13], 400 µg/mL (≈ 1170 µM); in [14], 400 µg/mL (≈ 1170 µM); in experiment [15], 200 µg/mL (≈ 586 µM).

`Nc1ccc([S+]([O-])c2ccc(N)cc2)cc1`: the Time in experiment [16] worked out at 90 days.

As for `CC(=O)Nc1ccc(S(=O)(=O)c2ccc(NC(C)=O)cc2O)cc1`, the Time in experiment [17] is 126 days.

Turning to `Nc1ccc(Sc2ccc(N)cc2)cc1` [4,4'-THIODIANILINE], the Time in experiment [18] was 68 days.

Consider `OC[C@H]1O[C@@H](n2cnc3c(-c4ccccc4)ncnc32)[C@H](O)[C@@H]1O`, for which the inhibition at 6.25 µg/mL in [3] came out at 14%. The half-maximal inhibitory concentration (IC50) in experiment [4] was found to be 0.4 µg/mL (≈ 1.22 µM). Further, the “inhibition (INH)” value in experiment [5] was 99%.

`CC(=O)Nc1ccc(S(=O)(=O)c2ccc(NC(C)=O)cc2Cl)cc1`: the Time in experiment [19] was 85 days.
